Measured values: PMC3620317, “Optimisation of Embryonic and Larval ECG Measurement in Zebrafish for Quantifying the Effect of QT Prolonging Drugs” (PLoS ONE, 2013)
Where “and” joins values, the source holds several entries; their conditions need not be identical. Identical values can stand only once.

What was measured:
3 dpf zebrafish larvae = assay: ECG recording in zebrafish larvae before and after drug treatment; conditions: for Mean interval duration QT / Mean interval duration QTc / Mean interval duration RR / Mean QTc interval duration, After: 3 dpf; for Mean interval duration QT / Mean interval duration QTc / Mean interval duration RR: n = 10; for Effect on heart rate (ƒH): immobilising agents, MESAB at very high concentrations, tubocurarine at any tested concentration; for Effect on QTc interval (in words): 3 dpf zebrafish larvae, over the tested concentrations; for AV block: at particular concentrations and exposure times
Protocol: For all experiments, except the anaesthetic and tubocurarine experiments, fish larvae were anaesthetised in ethyl-3 aminobenzoate methanesulfonate (0.3 mg/ml; Sigma) for 5–10 mins before transfer into 3 ml of embryo medium in the plate used for subsequent measurements. Once anaesthetised, one embryo was then transferred to the ECG recording plate (mini Petri dish with an unscented paraffin wax surface, containing 3 ml of fresh E3 embryo medium without MESAB). The embryo was positioned ventrally within a groove in the wax, and the tip (2 µm diameter) of a filled pre-pulled borosilicate glass micropipette (P84, World Precision Instruments) was positioned on the skin surface between the ventricle and atrium (no penetration) using micromanipulators (Narishige) and Inchworm step motors (Burleigh), viewed under a Nikon microscope (SMZ600). The micropipettes were filled with MicroFil (P85, World Precision Instruments) in 3 M potassium acetate solution (Sigma) and coloured with methylene blue (Sigma) to easier visualise the tips during recordings. A chloridised silver wire which carried the electrical signal to the amplifier was inserted into the micropipettes and a second reference electrode placed in the surrounding medium during recordings. The differential amplifier (NPI electronics) used for recording was operated in DC mode with the high pass filter set at 0.1 Hz. The raw ECG signals were digitised (PowerLab; ADI Instruments) and viewed using LabChart 7 (ADI Instruments).
Non-invasive recordings were taken by applying slight pressure over the surface of the heart using the tip of a glass capillary. Invasive recordings were taken by increasing the speed and also the distance moved by the step motor to puncture the skin over the heart. All of the recording equipment was housed on an air table within a grounded Faraday cage to minimise background noise. Experiments were performed at room temperature (21°C) except when otherwise stated. Temperature was controlled using a sensor placed in the recording plate and a homemade heating element (Cryocon 24 temperature controller). For optimisation experiments, recordings were taken for 5 mins. For the temperature experiments, embryos were initially acclimatised to each temperature for 30 mins before taking a recording of 5 mins. For drug treatments, ECG recordings were taken continuously after drug addition. A 5 mins segment before drug addition and a 15 minute segment where QT prolongation was first apparent by visual observation were selected for analysis.
All drug stocks were made using either DMSO or distilled water depending on solubility, then diluted using E3 embryo medium to make up the final concentrations for recording purposes with DMSO levels at 1%. ECG recordings were taken for 5 mins in 3 ml of embryo medium before addition of drug directly to the recording plate (1 ml) to produce the desired concentration by undergoing a 1 in 4 dilution.
Analysis of the digitised ECG signal was carried out using LabChart and the mean intervals for the ECG parameters R-R, QRS, QT and QTc were calculated. For drug treatments the percentage change in the corrected QT interval (QTc) before and after drug administration was compared. One way ANOVA analysis was then performed to determine statistical significance between differences observed.
Z factor scores were also calculated to determine the robustness of the ECG system as a screening tool, using the mean QTc percentage change before and after drug treatment for each individual fish. The values before drug treatment were standardised. The Z factor score was calculated using the following equation: Z = 1– [3×(σp+σn)/(µp - µn)],
where µp and σp represent mean and SD after treatment, while µn and σn represent mean and SD before treatment. Z factor scores fall into the following range: 1 = ideal, 0.5–1 = excellent, 0–0.5 = marginal, <0 = poor.

3 dpf zebrafish = assay: Exclusion of motion artefact: myocardial contractility under excitation-contraction uncouplers; type: in vivo; conditions: for Effect on contraction of cardiomyocytes / myocardial contractility: drug added to embryo holding chamber
Protocol: Firstly, recordings were performed with and without cromakalim and secondly, comparing invasive (intracardial) and non-invasive surface recordings. Cromakalim was added to the embryo holding chamber and ECG signals were recorded before and after drug exposure (QTc values shown in Table S1). […] Therefore, as an independent approach we compared ECG signals from invasive and non-invasive electrode positioning. There was minimal difference between recordings taken invasively and non-invasively (n = 5; Fig. 2B, Table S2).

[1] = set-up: method as in earlier work; conditions: zebrafish larvae ref 56; cited from earlier work
[2] = MESAB 0.1 mg/ml, prior anaesthesia 5–10 minutes
[3] = MESAB 0.3 mg/ml, prior anaesthesia 5–10 minutes
[4] = MESAB 0.5 mg/ml, prior anaesthesia 5–10 minutes
[5] = MESAB 1 mg/ml, prior anaesthesia 5–10 minutes
[6] = tubocurarine 100 μM, continuous exposure
[7] = tubocurarine 400 μM, continuous exposure

In the case of CCOC(=O)c1cccc(N)c1.CS(=O)(=O)O [MESAB, ethyl-3 aminobenzoate methanesulfonate], the “Mean interval duration QT” value (3 dpf zebrafish larvae; [2]) is reported as 0.3428 s, the “Mean interval duration QTc” value (3 dpf zebrafish larvae; [2]) is reported as 0.4944 s and the “Mean interval duration RR” value (3 dpf zebrafish larvae; [2]) is reported as 0.4798 s. The “Mean interval duration QT” value (3 dpf zebrafish larvae; [3]) was 0.3614 s, the “Mean interval duration QTc” value (3 dpf zebrafish larvae; [3]) was 0.5049 s and the “Mean interval duration RR” value (3 dpf zebrafish larvae; [3]) was 0.5123 s. For the same molecule, the “Mean interval duration QT” value (3 dpf zebrafish larvae; [4]) was 0.3515 s, the “Mean interval duration QTc” value (3 dpf zebrafish larvae; [4]) was 0.5012 s and the “Mean interval duration RR” value (3 dpf zebrafish larvae; [4]) was 0.4917 s. For the same molecule, the “Mean interval duration QT” value (3 dpf zebrafish larvae; [5]) was 0.3656 s, the “Mean interval duration QTc” value (3 dpf zebrafish larvae; [5]) was 0.5133 s and the “Mean interval duration RR” value (3 dpf zebrafish larvae; [5]) was 0.5517 s. The “Effect on R-R interval” value (3 dpf zebrafish larvae; MESAB at high concentrations (1 mg/ml), P<0.05) was “increase of the R-R interval” and the “Effect on heart rate (ƒH)” value (3 dpf zebrafish larvae) was “induced bradycardia”.

For CC1(C)Oc2ccc(C#N)cc2C(N2CCCC2=O)C1O (stereo not drawn) [cromakalim], the “Effect on QTc interval (in words)” value (3 dpf zebrafish larvae) was “no perturbation to the QTc interval”, the “Mean QTc interval duration, After” value (3 dpf zebrafish larvae; cromakalim 10 µM, n = 5, before drug 0.458 s) was 0.461 s and the “Mean QTc interval duration, After” value (3 dpf zebrafish larvae; cromakalim 25 µM, n = 5, before drug 0.459 s) was 0.460 s. The “Mean QTc interval duration, After” value (3 dpf zebrafish larvae; cromakalim 50 µM, n = 5, before drug 0.469 s) was 0.464 s, the “Mean QTc interval duration, After” value (3 dpf zebrafish larvae; cromakalim 100 µM, n = 5, before drug 0.453 s) was 0.449 s and the “Mean QTc interval duration, After” value (3 dpf zebrafish larvae; cromakalim 200 µM, n = 5, before drug 0.476 s) was 0.476 s. The “Mean QTc interval duration, After” value (3 dpf zebrafish larvae; cromakalim 300 µM, n = 5, before drug 0.475 s) was 0.472 s, the “Mean QTc interval duration, After” value (3 dpf zebrafish larvae; cromakalim 400 µM, n = 5, before drug 0.468 s) was 0.474 s and the “Effect on contraction of cardiomyocytes / myocardial contractility” value (3 dpf zebrafish) was “did not reduce contraction of cardiomyocytes”.

For CC(C)(C)c1ccc(C(O)CCCN2CCC(C(O)(c3ccccc3)c3ccccc3)CC2)cc1 (stereo not drawn) [terfenadine], the “Arrhythmia, ECG screenshot” value (3 dpf zebrafish larvae; 50 µM terfenadine, after 40 minutes of treatment, 3 dpf larva) was “arrhythmic phenotype with the presence of ectopic beats”, the AV block (3 dpf zebrafish larvae; 3 dpf larvae) was 2∶1 AV block and the AV block (3 dpf zebrafish larvae; 3 dpf larvae, listed as Terfenadine) was “induced an atrioventricular (AV) block”. The Arrhythmia development (3 dpf zebrafish larvae; time and concentration-dependent, 3 dpf larvae) was “development of an arrhythmia” and the “Metabolism in zebrafish larvae” value [1] was “almost completely metabolised to azacyclone and terfenadine alcohol”.

For COc1cc2c3cc1Oc1cc(ccc1O)C[C@@H]1c4c(cc(OC)c(O)c4Oc4ccc(cc4)C[C@@H]3N(C)CC2)CC[N+]1(C)C [tubocurarine], the “Effect on heart rate (ƒH)” value (3 dpf zebrafish larvae) was “did not affect ƒH at any of the tested concentrations”, the “Mean interval duration QT” value (3 dpf zebrafish larvae; [6]) was 0.3263 s and the “Mean interval duration QTc” value (3 dpf zebrafish larvae; [6]) was 0.4733 s. For the same molecule, the “Mean interval duration RR” value (3 dpf zebrafish larvae; [6]) was 0.4755 s, the “Mean interval duration QT” value (3 dpf zebrafish larvae; [7]) was 0.3306 s and the “Mean interval duration QTc” value (3 dpf zebrafish larvae; [7]) was 0.4755 s. For the same molecule, the “Mean interval duration RR” value (3 dpf zebrafish larvae; [7]) was 0.4863 s.

For Cc1ccc2c(c1)C(=O)C1(O)CCN(c3ccccc3)C1=N2 (stereo not drawn) [blebbistatin], the “Adverse effects on ECG and embryo survival” value (3 dpf zebrafish) was “adverse effects on the ECG and embryo survival” and the “Effect on contraction of cardiomyocytes / myocardial contractility” value (3 dpf zebrafish) was “completely remove myocardial contractility”.

For penicillin, the “Effect on QTc interval (in words)” value (3 dpf zebrafish larvae) was “no effect on the QTc interval”, the “Mean QTc interval duration, After” value (3 dpf zebrafish larvae; penicillin 0.1 µM, negative control, n = 8, before drug 0.497 s) was 0.495 s and the “Mean QTc interval duration, After” value (3 dpf zebrafish larvae; penicillin 0.3 µM, negative control, n = 8, before drug 0.487 s) was 0.492 s. For the same molecule, the “Mean QTc interval duration, After” value (3 dpf zebrafish larvae; penicillin 10 µM, negative control, n = 8, before drug 0.490 s) was 0.500 s, the “Mean QTc interval duration, After” value (3 dpf zebrafish larvae; penicillin 30 µM, negative control, n = 8, before drug 0.494 s) was 0.503 s and the “Mean QTc interval duration, After” value (3 dpf zebrafish larvae; penicillin 50 µM, negative control, n = 8, before drug 0.489 s) was 0.488 s. For the same molecule, the “Mean QTc interval duration, After” value (3 dpf zebrafish larvae; penicillin 100 µM, negative control, n = 8, before drug 0.506 s) was 0.508 s, the “Mean QTc interval duration, After” value (3 dpf zebrafish larvae; penicillin 200 µM, negative control, n = 8, before drug 0.478 s) was 0.483 s and the “Mean QTc interval duration, After” value (3 dpf zebrafish larvae; penicillin 300 µM, negative control, n = 8, before drug 0.457 s) was 0.454 s. The “Mean QTc interval duration, After” value (3 dpf zebrafish larvae; penicillin 400 µM, negative control, n = 8, before drug 0.514 s) was 0.507 s and the “Mean QTc interval duration, After” value (3 dpf zebrafish larvae; penicillin 1000 µM, negative control, n = 8, before drug 0.511 s) was 0.501 s.

With O=C(CCCN1CCC(O)(c2ccc(Cl)cc2)CC1)c1ccc(F)cc1 [haloperidol] the “Effect on QTc interval (in words)” value (3 dpf zebrafish larvae) was “apparent QT prolongation, which was found to be similar at various concentrations”, the AV block (3 dpf zebrafish larvae; 3 dpf larvae) was “induced an atrioventricular (AV) block and 2∶1 AV block” and the “Mean QTc interval duration, After” value (3 dpf zebrafish larvae; haloperidol 50 µM, n = 8, before drug 0.499 s) was 0.586 s. For the same molecule, the “Mean QTc interval duration, After” value (3 dpf zebrafish larvae; haloperidol 100 µM, n = 8, before drug 0.511 s) was 0.603 s, the “Mean QTc interval duration, After” value (3 dpf zebrafish larvae; haloperidol 200 µM, n = 8, before drug 0.504 s) was 0.593 s and the “Mean QTc interval duration, After” value (3 dpf zebrafish larvae; haloperidol 300 µM, n = 8, before drug 0.480 s) was 0.576 s.

In the case of CC(=O)C(C)=NO [BDM, 2,3-butanedione-monoxime], the “Adverse effects on ECG and embryo survival” value (3 dpf zebrafish) is reported as “adverse effects on the ECG and embryo survival” and the “Effect on contraction of cardiomyocytes / myocardial contractility” value (3 dpf zebrafish) is reported as “completely remove myocardial contractility”.

In the case of COc1ccc(CCN(C)CCCC(C#N)(c2ccc(OC)c(OC)c2)C(C)C)cc1OC (stereo not drawn) [verapamil], the “Effect on QTc interval (in words)” value (3 dpf zebrafish larvae) is reported as “increased the QTc interval”, the “Mean QTc interval duration, After” value (3 dpf zebrafish larvae; verapamil 10 µM, n = 8, before drug 0.482 s) is reported as 0.486 s and the “Mean QTc interval duration, After” value (3 dpf zebrafish larvae; verapamil 25 µM, n = 8, before drug 0.478 s) is reported as 0.484 s. The “Mean QTc interval duration, After” value (3 dpf zebrafish larvae; verapamil 50 µM, n = 8, before drug 0.471 s) was 0.529 s, the “Mean QTc interval duration, After” value (3 dpf zebrafish larvae; verapamil 100 µM, n = 8, before drug 0.473 s) was 0.578 s and the “Mean QTc interval duration, After” value (3 dpf zebrafish larvae; verapamil 200 µM, n = 8, before drug 0.484 s) was 0.591 s. For the same molecule, the “Mean QTc interval duration, After” value (3 dpf zebrafish larvae; verapamil 300 µM, n = 8, before drug 0.477 s) was 0.622 s, the “Mean QTc interval duration, After” value (3 dpf zebrafish larvae; verapamil 400 µM, n = 8, before drug 0.481 s) was 0.609 s and the “Mean QTc interval duration, After” value (3 dpf zebrafish larvae; verapamil 1000 µM, n = 8, before drug 0.466 s) was 0.616 s.

For O=c1[nH]c2ccccc2n1C1CCN(CCCC(c2ccc(F)cc2)c2ccc(F)cc2)CC1 [pimozide], the “Effect on QTc interval (in words)” value (3 dpf zebrafish larvae) was “statistically significant increase in the corrected QT interval”, the AV block (3 dpf zebrafish larvae; 3 dpf larvae) was “induced an atrioventricular (AV) block” and the “Mean QTc interval duration, After” value (3 dpf zebrafish larvae; pimozide 50 µM, n = 8, before drug 0.491 s) was 0.629 s. The “Mean QTc interval duration, After” value (3 dpf zebrafish larvae; pimozide 100 µM, n = 8, before drug 0.470 s) was 0.610 s.
